Data on seven compounds can be found in patent US8148385B2, “Substituted [1,2,3] triazolo[4,5-d]pyrimidine derivatives as ADP P2Y12 receptor antagonists” (Janssen Pharmaceutica N.V., priority 2006, dated 2012).

Where only a bound is given, the exact number is not on record here.

The target in experiment [1] is T1, ADP P2Y12 (Homo sapiens, UniProt Q9H244).
T1 construct: expressed in transfected cells
Put plainly: FLIPR calcium assay transducing Gi-coupled signaling to the Gq pathway (inhibition of calcium mobilization). As to conditions: HEK 293 cells co-transfected with P2Y12 and Gqi5, ADP at EC60-70 dose. Format: cell-based. The text has this: A FLIPR Calcium Assay Transducing Gi-Coupled Signaling to the Gq Pathway
The ADP P2Y12 subtype is a Gi coupled GPCR, which mediates inhibition of adenylate cyclase leading to decreased cAMP while Gq proteins primarily activate phospholipase C, which stimulates inositol-1,4,5-triphosphate (IP3) formation and a subsequent increase in intracellular Ca^2+ concentration, which can be easily measured by FLIPR. Prior to the development of a method to convert a Gi coupled GPCR signaling to a Gq coupled GPCR signaling, a significant barrier existed for the functional testing and screening of Gi coupled GPCRs. One popular method, GTPγS migration, is slow, produces a small signal and generates radioactive waste. The discovery that a small switch in the amino acid sequence in the Gi protein could convert it to a protein mediating a Gq coupled response has led to the development of robust, high throughput assays for this valuable receptor subtype.
The FLIPR-based HTS assay transducing the Gi signaling to the Gq pathway is described below.
pcDNA3hygroP2Y12 containing a hygromycin resistance gene and pLEC1-Gqi5-HA containing a neomycin resistance gene (licensed from Molecular Devices, Sunnyvale, Calif.) were co-transfected into Human embryonic kidney (HEK) 293 cells with SuperFect (Qiagen, Valencia, Calif.). Cell clones were selected in the presence of 600 μg/ml hygromycin B (Life Technologies, Carlsbad, Calif.) and 1 mg/ml of G418 (Mediatech, Herndon, Va.). Drug resistant colonies were picked and screened by FLIPR and the gene expression was further confirmed by RT-PCR. Positive clones were maintained in growth medium (DMEM supplemented with 10% FBS, 1×p/s) containing 400 μg/ml of G418 and 200 μg/ml of hygromycin.
The day before the assay, cells are seeded in clear, flat-bottom black-wall, tissue culture treated polystyrene 96- or 384-well plates and incubated at 37° C., 5% CO2. 50 μl of complete dye loading solution (FLIPR Calcium Assay Kit, Molecular Devices) was added to each well containing 100 μl of culture media. The cells were incubated for at least 30 min at 37° C., in 5% CO2 before initiating the assay on the FLIPR. The agonist effect of ADP was tested and EC50 was determined prior to compound testing. The EC60-70 dose was used.
The antagonist compounds were prepared at 4× and the agonists were diluted at 5× the concentration desired in the test wells, and then aliquoted into the sample plates. The sample plates and the cell plate were placed in the FLIPR assay chamber. A first addition (50 μl) was made at the start of reading and a second addition (50 μl) was made after 5 min of reading. Raw fluorescence data was exported for each well and tabulated versus time within an ASCII file. Data was then imported into Excel and the peak response over the basal level was determined. The percent inhibition for each compound was calculated by the change in fluorescent density as a % inhibition of the control ADP response to obtain an IC50, as shown in Table 1 (wherein N/A means Not Applicable).
Background: Calcium flux is commonly read through the fluorescence of an indicator in the cells.

Experiment [2] has as its target T2, P2Y12 receptor (Homo sapiens, UniProt Q9H244).
T2 construct: expressed in transfected cells
Put plainly: Whole cell receptor binding assay for 2-MeS[3H]-ADP. As to conditions: whole HEK 293 cells transfected with P2Y12; 2-MeS[3H]-ADP 3 nM; 30 min at 37° C.; read-out: Inhibition of Receptor Binding IC50. How it is done: A whole cell-binding assay for 2-MeS [^3H]-ADP (Custom synthesized by Amersham BioScience, Piscataway, N.J.) to the P2Y12 receptor was performed.
A P2Y12 cDNA containing hygromycin resistant gene was transfected in HEK 293 cells. A stable cell line was obtained by a cloning selection method. The cells were cultured in DMEM supplemented with 10% FBS and 1× of p/s.
On the day of the assay, the cells were harvested and resuspended in 0.25% BSA-DMEM and adjusted to a cell concentration of 1.6×10^6/ml. […] The reaction was then incubated for 30 min at 37° C. and stopped by adding cold DMEM. […] The plates were dyed in a 37° C. oven for 1-2 hours and 50 μl of MicroScint-20 (PerkinElmer) was added to each well. The radioactivity was measured using a TOPCOUNT beta counter (Packard).

Experiment [3] concerns washed platelets. Put plainly: In vitro platelet aggregation. Format: cell-based. As to conditions: Homo sapiens, washed platelets from healthy volunteers, agonist (ADP) at 60-70% aggregation, % inhibition of control ADP response. As to the method:
Platelet aggregation studies were performed according to a published method (Bednar, B., Condra, C., Gould, R. J., and Connolly, T. M., Throm. Res., 77:453-463 (1995). Platelet-rich plasma (PRP) concentrates prepared from healthy volunteers who were aspirin free for at least 7 days by venipuncture using ACD-A as anticoagulant was purchased from Biological Specialties, Inc. (Colmar, Pa.). PRP was centrifuged at 730 g for 15 min. The platelet pellet was washed twice in CGS buffer (13 mM sodium citrate, 30 mM glucose, 120 mM NaCl, pH 6.5) containing 1 μ/ml apyrase (grade V, Sigma-Aldrich, St. Louis, Mo.), 1 mM EGTA, and resuspended in Tyrode's buffer (140 mM NaCl, 2.7 mM KCl, 12 mM NaHCO3, 0.76 mM Na2HPO4, 5.5 mM dextrose, 5.0 mM Hepes, 0.2% BSA, pH 7.4). The platelets were diluted to 3×10^8 platelets/ml and kept >45 min at 37° C. before use. 105 μl of washed platelets, 2 mM CaCl2 and […] of fibrinogen were added to a 96-well microliter plate.
Platelet aggregation was initiated by the addition of serial concentrations of ADP (BioData Corp. Horsham, Pa.). Buffer was added to one set of control wells. The assay plate was stirred constantly and intermittently placed in a microplate reader (Softmax, Molecular Devices, Menlo Park, Calif.) to read optical density (650 nm) at 0 and 5 minutes after the addition of the compound solutions. Aggregation was calculated as the decrease in optical density between the time 0- and 5-min measurements and expressed as % of aggregation. For the inhibition assay, platelet aggregation was conducted as described above except for compound additions. Test compounds were prepared in 100% DMSO and stored.
On the day of the assay, test compounds were diluted in the buffer containing 3% of DMSO as a 10× working solution. 15 μl of compound solutions were added to 105 μl of platelets 5 min prior to the addition of CaCl2 and fibrinogen.

T1 sequence (Q9H244 whole entry): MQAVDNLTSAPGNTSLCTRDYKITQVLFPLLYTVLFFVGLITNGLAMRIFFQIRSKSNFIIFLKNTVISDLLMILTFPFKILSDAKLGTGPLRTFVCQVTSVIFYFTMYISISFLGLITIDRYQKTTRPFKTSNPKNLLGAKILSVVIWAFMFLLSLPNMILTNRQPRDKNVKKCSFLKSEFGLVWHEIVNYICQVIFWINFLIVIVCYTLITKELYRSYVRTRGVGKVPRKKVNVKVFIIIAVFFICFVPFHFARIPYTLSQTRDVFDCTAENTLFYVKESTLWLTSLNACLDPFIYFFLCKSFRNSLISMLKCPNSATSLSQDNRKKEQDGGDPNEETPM
T2 sequence (Q9H244 whole entry): as above

Consider `CCCSc1nc(N[C@@H]2C[C@H]2c2ccccc2)c2nnn([C@@H]3C=C[C@H](O)[C@@H](O)[C@H]3O)c2n1` (mixture of isomers) [Cpd 5, (1S,2R,3S,6R)-6-{7-[(1RS,2SR)-2-phenyl-cyclopropylamino]-5-propylsulfanyl-[1,2,3]triazolo[4,5-d]pyrimidin-3-yl}-cyclohex-4-ene-1,2,3-triol], for which the IC50 (usually the point on the concentration scale where inhibition reaches its midpoint) in experiment [1] came out at 745 nM; in experiment [2] it was 2100 nM; in experiment [3], 5050 nM.
`CCCSc1nc(N[C@@H]2C[C@H]2c2ccccc2)c2nnn([C@@H]3C=C[C@H](OCC(=O)O)[C@@H](O)[C@H]3O)c2n1` (mixture of isomers) [Cpd 11, [(1S,4R,5S,6S)-5,6-dihydroxy-4-{7-[(1RS,2SR)-2-phenyl-cyclopropylamino]-5-propylsulfanyl-[1,2,3]triazolo[4,5-d]pyrimidin-3-yl}-cyclohex-2-enyloxy]-acetic acid]: the values for the IC50 in experiment [1], in experiment [2] and in experiment [3] were 2200 nM, 1490 nM and 2910 nM, respectively.
In the same order, the values of `CCCSc1nc(N[C@@H]2C[C@H]2c2ccccc2)c2nnn([C@@H]3CC[C@H](O)[C@@H](O)[C@H]3O)c2n1` (mixture of isomers) [Cpd 14, (1S,2R,3S,4R)-4-{7-[(1RS,2SR)-2-phenyl-cyclopropylamino]-5-propylsulfanyl-[1,2,3]triazolo[4,5-d]pyrimidin-3-yl}-cyclohexane-1,2,3-triol] are 456 nM, 1350 nM and 3100 nM.
In the same order, the values of `CCCSc1nc(N[C@@H]2C[C@H]2c2ccccc2)c2nnn([C@H]3[C@H](O)[C@H](O)[C@@H](O)[C@H](O)[C@@H]3O)c2n1` (racemic) [Cpd 9, (1R,2R,4S,5S)-6-{7-[(1RS,2SR)-phenyl-cyclopropylamino]-5-propylsulfanyl-[1,2,3]triazolo[4,5-d]pyrimidin-3-yl}-cyclohexane-1,2,3,4,5-pentaol] are 2960 nM, 5040 nM and 15000 nM.
In the same order, the values of `CCCCNc1nc(SCCC)nc2c1nnn2[C@@H]1C=C[C@H](O)[C@@H](O)[C@H]1O` [Cpd 1, (1S,2R,3S,6R)-6-(7-butylamino-5-propylsulfanyl-[1,2,3]triazolo[4,5-d]pyrimidin-3-yl)-cyclohex-4-ene-1,2,3-triol] are 2120 nM, 9030 nM and 15200 nM.
`CCCSc1nc(NC[C@H]2CCCO2)c2nnn([C@@H]3CC[C@H](O)[C@@H](O)[C@H]3O)c2n1` [Cpd 17, (1S,2R,3S,4R)-4-(5-propylsulfanyl-7-{[(2R)-tetrahydro-furan-2-ylmethyl]-amino}-[1,2,3]triazolo[4,5-d]pyrimidin-3-yl)-cyclohexane-1,2,3-triol]: the half-maximal inhibitory concentration (IC50) in experiment [1] and in experiment [3] was greater than 30000 nM each time.
For `CCCSc1nc(NCC2CCCN2CC)c2nnn([C@@H]3CC[C@H](O)[C@@H](O)[C@H]3O)c2n1` (stereo partly drawn) [Cpd 21, (1S,2R,3S,4R)-4-{7-[(1-ethyl-pyrrolidin-2-ylmethyl)-amino]-5-propylsulfanyl-[1,2,3]triazolo[4,5-d]pyrimidin-3-yl}-cyclohexane-1,2,3-triol], the IC50 in experiment [1] and in experiment [3] was greater than 30000 nM each time.
